Experimental data from patent publication US20140045805A1, “Fragrance Compositions and Other Compositions Which Contain Naturally Occurring Substances Found in Corals” (priority 2007, published 2014).

Tested on: healthy volunteers (men and women)
Experiment: Local and general tolerability and safety of airborne nasal delivery
Assay type: in vivo, human
Conditions: 12 ng intranasal; for Adverse effects reported: during the intervention and 24 hours after
Experimental: The physiologic and psychological effects of pregna-5,20-dien-3β-ol were investigated in men and women. Additionally, the local and general tolerability and safety of pregna-5,20-dien-3β-ol delivered airborne to the nasal passages were also evaluated.
After completion of physiologic recordings and the modified DABS-70 (#3), all surface electrodes were removed and the subject went through an exit interview lasting 5 minutes. At this time the investigator recorded again the arterial blood pressure and also inquired the subject about his or her state of feelings, and also any possible adverse effect appearing during the study session.

C=C[C@H]1CC[C@H]2[C@@H]3CC=C4C[C@@H](O)CC[C@]4(C)[C@H]3CC[C@]12C [pregna-5,20-dien-3β-ol, Pregna-5,20-dien-3β-ol]
Arterial blood pressure, beginning of session vs exit interview: absence of significant arterial blood pressure difference
Tolerability (airborne, all volunteers of both gender groups): well tolerated
Adverse effects reported: no adverse effects reported
Adverse effects reported (listed as Pregna-5,20-dien-3β-ol): no reports of local or general adverse side effects
Local nasal discomfort / clinical examination of the nasal passages (end of the recording session): did not reveal local lesions and/or inflammation
